pIC50: −log10 of the molar value. Active and inactive are the calls of the source. No cut-off for these calls is given here.
Tests used:
[1] = molecular target: T1, Son of sevenless homolog 1 (Homo sapiens) (UniProt Q07889); assay: Inhibition of human recombinant SOS1 at 10 uM relative to control
T1 sequence (whole entry): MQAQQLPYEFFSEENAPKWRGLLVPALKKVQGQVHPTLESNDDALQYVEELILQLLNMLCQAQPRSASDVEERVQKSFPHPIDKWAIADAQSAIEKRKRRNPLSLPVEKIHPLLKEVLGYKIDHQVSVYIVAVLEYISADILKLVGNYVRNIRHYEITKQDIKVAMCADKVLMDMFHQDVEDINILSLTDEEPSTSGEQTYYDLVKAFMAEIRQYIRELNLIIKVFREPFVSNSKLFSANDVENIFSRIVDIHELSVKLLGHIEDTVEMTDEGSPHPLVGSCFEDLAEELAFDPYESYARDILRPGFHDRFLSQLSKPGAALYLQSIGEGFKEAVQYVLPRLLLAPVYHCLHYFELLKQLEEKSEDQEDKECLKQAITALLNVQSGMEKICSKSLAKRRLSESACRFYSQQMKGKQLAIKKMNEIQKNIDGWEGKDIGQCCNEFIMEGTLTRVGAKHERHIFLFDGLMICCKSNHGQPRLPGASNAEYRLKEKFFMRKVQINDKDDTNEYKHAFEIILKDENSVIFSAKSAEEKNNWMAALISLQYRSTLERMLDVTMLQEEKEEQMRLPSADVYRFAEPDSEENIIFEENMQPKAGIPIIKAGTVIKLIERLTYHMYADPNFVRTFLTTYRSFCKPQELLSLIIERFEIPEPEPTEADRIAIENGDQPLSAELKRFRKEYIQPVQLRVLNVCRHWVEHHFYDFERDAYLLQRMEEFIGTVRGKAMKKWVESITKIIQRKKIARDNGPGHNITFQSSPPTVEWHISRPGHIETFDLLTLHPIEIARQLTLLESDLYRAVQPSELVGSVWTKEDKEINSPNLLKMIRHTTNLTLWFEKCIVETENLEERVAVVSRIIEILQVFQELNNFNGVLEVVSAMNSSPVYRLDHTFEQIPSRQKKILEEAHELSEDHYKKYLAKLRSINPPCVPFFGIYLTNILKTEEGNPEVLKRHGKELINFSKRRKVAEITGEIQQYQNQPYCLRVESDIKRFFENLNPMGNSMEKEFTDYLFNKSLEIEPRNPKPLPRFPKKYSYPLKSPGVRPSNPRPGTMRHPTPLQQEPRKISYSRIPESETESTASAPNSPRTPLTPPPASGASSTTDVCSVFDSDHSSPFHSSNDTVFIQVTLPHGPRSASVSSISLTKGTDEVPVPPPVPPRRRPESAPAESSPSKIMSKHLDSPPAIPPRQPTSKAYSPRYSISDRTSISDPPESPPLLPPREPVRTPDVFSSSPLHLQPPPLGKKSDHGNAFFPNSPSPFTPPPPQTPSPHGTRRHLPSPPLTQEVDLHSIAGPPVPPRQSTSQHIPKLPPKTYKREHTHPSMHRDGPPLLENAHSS

[2] = molecular target: Epidermal growth factor receptor (Homo sapiens, UniProt P00533); assay: Inhibition of EGFR (unknown origin) using ultra ULight GT peptide as substrate at 10 uM incubated for 2 hrs relative to control
[3] = tested on: PC-3; assay: cells; format: functional, cell-based; conditions: Homo sapiens, PC-3, 72 h
Description: Antiproliferative activity against human PC-3 cells assessed as inhibition of cell growth incubated for 72 hrs by MTT assay

[4] = tested on: PC-3; assay: cells; conditions: Homo sapiens, PC-3, 72 h
Description: Synergistic antiproliferative activity against human PC-3 cells assessed as inhibition of cell growth incubated for 72 hrs in presence of gefitinib by MTT assay

Epidermal growth factor receptor, sequence (P00533 whole entry): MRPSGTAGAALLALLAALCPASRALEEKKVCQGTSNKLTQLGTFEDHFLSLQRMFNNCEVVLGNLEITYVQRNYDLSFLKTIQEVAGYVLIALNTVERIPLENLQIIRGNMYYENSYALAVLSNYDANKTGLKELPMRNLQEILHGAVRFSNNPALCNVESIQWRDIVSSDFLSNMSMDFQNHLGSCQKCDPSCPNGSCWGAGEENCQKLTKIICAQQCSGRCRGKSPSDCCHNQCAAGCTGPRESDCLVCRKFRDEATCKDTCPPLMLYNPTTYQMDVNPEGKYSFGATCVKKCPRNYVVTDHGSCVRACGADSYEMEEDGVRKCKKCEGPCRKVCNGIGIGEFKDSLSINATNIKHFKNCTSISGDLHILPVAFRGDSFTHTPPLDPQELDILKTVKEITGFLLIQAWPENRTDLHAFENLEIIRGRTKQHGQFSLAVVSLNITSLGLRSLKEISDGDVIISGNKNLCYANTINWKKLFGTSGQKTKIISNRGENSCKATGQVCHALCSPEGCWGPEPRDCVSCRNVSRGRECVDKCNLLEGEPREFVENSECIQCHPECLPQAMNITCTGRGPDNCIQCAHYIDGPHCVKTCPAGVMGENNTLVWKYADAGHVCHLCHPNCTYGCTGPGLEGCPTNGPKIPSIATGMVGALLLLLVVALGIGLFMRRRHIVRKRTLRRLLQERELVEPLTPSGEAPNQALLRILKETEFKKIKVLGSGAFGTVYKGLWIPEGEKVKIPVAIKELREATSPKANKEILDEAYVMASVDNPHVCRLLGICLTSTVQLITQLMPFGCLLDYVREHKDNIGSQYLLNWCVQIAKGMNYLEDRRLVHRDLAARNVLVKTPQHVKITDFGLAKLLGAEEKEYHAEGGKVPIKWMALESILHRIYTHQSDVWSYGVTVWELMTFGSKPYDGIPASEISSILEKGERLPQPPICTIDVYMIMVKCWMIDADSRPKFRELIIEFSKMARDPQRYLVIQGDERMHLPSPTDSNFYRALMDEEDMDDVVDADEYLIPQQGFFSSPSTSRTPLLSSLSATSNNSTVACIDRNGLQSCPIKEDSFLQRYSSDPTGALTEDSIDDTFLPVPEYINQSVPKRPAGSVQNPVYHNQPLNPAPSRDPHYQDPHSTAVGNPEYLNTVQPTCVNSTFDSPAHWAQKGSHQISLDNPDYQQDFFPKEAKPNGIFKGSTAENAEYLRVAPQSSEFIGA

Row | SMILES | inhibition [1] | inhibition [2] | pIC50 [3] | pIC50 [4]
1 | COc1cc2ncnc(NCc3ccc4c(c3)OCO4)c2cc1OC | 41% | 92% |  | 
2 | c1ccc(Nc2ncnc3sc4c(c23)CCC4)cc1 | inactive | 70% |  | 
3 | COc1cc2nc(C)nc(N[C@H](C)c3cc(N)cc(C(F)(F)F)c3)c2cc1O[C@H]1CCOC1 |  |  | 5.06 | 5.86
4 | Clc1cccc(Nc2ncnc3sc4c(c23)CCCC4)c1 | inactive | 74% |  | 
5 | CCc1cc2c(Nc3ccc(Cl)cc3)ncnc2s1 | inactive | 66% |  | 
6 | Cc1cccc(Nc2ncnc3c2cnn3C)c1 | inactive | 73% |  | 

The next lines start with results.

Row | inhibition [1] | inhibition [2] | SMILES | pIC50 [3] | pIC50 [4]
7 | 47% | 84% | Clc1ccc(CNc2ncnc3ccccc23)cc1 |  | 
8 | 43% | 90% | COc1cc2ncnc(NCc3ccccc3C(F)(F)F)c2cc1OC |  | 
9 | inactive | 64% | CCc1cc2c(Nc3ccc(OC)cc3)ncnc2s1 |  | 
10 | inactive | 91% | c1ccc2c(Nc3ccc4c(c3)OCO4)ncnc2c1 |  | 
11 | 56% | 95% | COc1cc2ncnc(NCc3cccc(Cl)c3)c2cc1OC |  | 
12 | inactive | 62% | Cc1sc2ncnc(Nc3ccc(F)cc3)c2c1C |  | 
